The text below walks through data of patent US4898868A, “3-demethyl-4-fluoromevalonic acid derivatives, a process for the preparation thereof, pharmaceutical products based on these compounds, the use thereof, and intermediates” (Hoechst Aktiengesellschaft, priority 1987, dated 1990).

Series [1] addresses T1, HMG-CoA reductase (Rattus norvegicus, UniProt P51639).
T1 sequence (P51639 1-887): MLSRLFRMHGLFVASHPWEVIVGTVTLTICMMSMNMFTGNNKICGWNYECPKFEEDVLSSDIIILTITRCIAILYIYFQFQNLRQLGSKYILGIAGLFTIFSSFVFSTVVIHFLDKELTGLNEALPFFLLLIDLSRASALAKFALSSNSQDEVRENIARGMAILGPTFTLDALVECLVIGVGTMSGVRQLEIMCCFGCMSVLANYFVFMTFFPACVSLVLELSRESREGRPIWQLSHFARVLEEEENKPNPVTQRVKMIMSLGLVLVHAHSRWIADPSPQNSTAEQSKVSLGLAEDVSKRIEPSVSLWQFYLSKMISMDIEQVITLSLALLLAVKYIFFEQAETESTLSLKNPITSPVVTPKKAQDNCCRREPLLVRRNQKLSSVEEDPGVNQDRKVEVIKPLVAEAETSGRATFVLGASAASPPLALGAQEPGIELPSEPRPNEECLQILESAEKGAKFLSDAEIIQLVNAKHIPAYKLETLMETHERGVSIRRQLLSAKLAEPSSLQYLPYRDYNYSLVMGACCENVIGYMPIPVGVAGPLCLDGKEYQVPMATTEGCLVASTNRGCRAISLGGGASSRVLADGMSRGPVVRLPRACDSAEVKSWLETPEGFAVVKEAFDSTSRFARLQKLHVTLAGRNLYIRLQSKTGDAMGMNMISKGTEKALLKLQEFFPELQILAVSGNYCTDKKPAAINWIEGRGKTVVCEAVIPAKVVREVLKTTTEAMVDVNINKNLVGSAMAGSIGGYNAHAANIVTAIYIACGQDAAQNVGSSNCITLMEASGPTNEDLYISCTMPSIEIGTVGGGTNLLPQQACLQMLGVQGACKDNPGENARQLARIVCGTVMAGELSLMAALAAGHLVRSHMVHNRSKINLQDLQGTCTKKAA
Briefly: inhibition of HMG-CoA reductase activity on solubilized enzyme preparations from rat liver microsomes. The format is biochemical. Conditions: solubilized rat liver microsomal enzyme; mean of 3 parallel samples; optically pure compounds. In general terms: Microsomes from liver hold many membrane-bound enzymes, among them those of drug oxidation.

Series [2] concerns cholesterol biosynthesis in HEP G2 cells. Nature of the series: inhibition of cholesterol biosynthesis in HEP G2 cell cultures by incorporation of 14C-precursor (14C-acetate) in cholesterol. The format is cell-based. Conditions: Homo sapiens, HepG2, 1 hour preincubation, 3 hours with 14C-acetate. How it is done: In addition, the inhibition of cholesterol biosynthesis in cell cultures was tested with selected compounds by the incorporation of ^14 C-precursor in cholesterol.
Monolayers of HEP G2 cells in Lipoprotein-free nutrient medium were incubated with various concentrations of the test substances for 1 hour. After addition of the ^14 C-labeled precursor sodium ^14 C-acetate, the incubation was continued for 3 hours. Then ^3 H-cholesterol was added as internal standard, and some of the cells were hydrolyzed with alkali. The lipids were extracted from the hydrolyzed cells using chloroform/methanol. Carrier cholesterol was added to this lipid mixture which was then subjected to preparative thin-layer chromatography, the cholesterol band was visualized with iodine vapor and then isolated, and the amount of ^14 C-cholesterol formed from the ^14 C-precursor was determined by scintigraphy. Cellular protein was determined in an aliquot of the cells, so that it is possible to calculate the amount of ^14 C-cholesterol formed from the ^14 C-precursor per mg of cellular protein in unit time. The solvent control is used for comparison with the inhibitory effect of an added test product, so that the inhibition of cholesterol biosynthesis at a particular molar concentration of the test product in the medium can be stated. The absence of cell damage due to the action of the products was confirmed in an aliquot of the cell culture by the morphology (light microscope). The IC50 values of the test products are stated in mol/l (in Table II), and their relative potencies are compared with mevinolin sodium salt and mevinolin lactone (comparison of the IC50 values).

Series [3] has as its system liver enzyme levels. Briefly: liver enzyme levels in the rabbit test. It is filed as in vivo. Conditions: 10 mg/kg/day by gavage; rabbits. The method, then:
(§1) The cholesterol-lowering efficacy was investigated in the following test on rabbits Normolipidemic male New Zealand rabbits (weight 3-3.5 kg, 4-6 animals per test group) received the test compounds suspended in a 1% strength aqueous carboxymethylcellulose solution (®Tylose) by gavage each day in the morning; the control group received only Tylose solution. Venous blood was taken every 3 to 4 days 20 hours after the oral administration of the solutions. The total cholesterol content in these samples was determined enzymatically using the Boehringer Mannheim assay kit (CHOD-PAP-high performance method). The serum cholesterol level in the group treated with test compounds was compared with that in the control group. The treatment period was followed by a period in which the test compounds were no longer administered.
The serum cholesterol levels returned to their initial value within 3 days after discontinuation of the product (after 10 days).

Series [4] deals with total serum cholesterol. Nature of the series: cholesterol-lowering efficacy in normolipidemic male New Zealand rabbits. It is filed as in vivo, rabbit. How it is done: as §1
For series [5], the system named is HMG-CoA reductase. Conditions: Endo et al. 1976; Brown et al. 1976; cited from earlier work.

As a reminder, the IC50 is the point on the concentration scale where inhibition reaches its midpoint. Regarding `CC(C)c1nc(-c2ccccc2)cc(-c2ccc(F)cc2)c1/C=C/[C@@H](O)[C@H](F)[C@@H](O)CC(=O)O`, it took 0.0085 µM to reach half-maximal inhibition in series [1] (IC50).

Turning to `CC(C)c1nc(-c2ccccc2)cc(-c2ccc(F)cc2)c1CC[C@@H](O)[C@@H](F)[C@@H](O)CC(=O)O`, half-maximal inhibition in series [1] (IC50) required 0.02 µM. This IC50 is about 2.4-fold higher than that of the compound before.

`CC(C)c1nc(-c2ccccc2)nc(-c2ccc(F)cc2)c1/C=C/[C@@H](O)[C@H](F)[C@@H](O)CC(=O)O` came in with an IC50 in series [1] of 0.036 µM.

Consider `CC(C)c1cc(-c2ccccc2)cc(-c2ccc(F)cc2)c1/C=C/[C@@H](O)[C@H](F)[C@@H](O)CC(=O)O`, for which 0.0063 µM corresponded to half-maximal inhibition in series [1] (IC50).

The compound `Cc1cc(C)c(/C=C/[C@@H](O)[C@H](F)[C@@H](O)CC(=O)O)c(-c2ccc(F)cc2)c1` came in with an IC50 in series [1] of 0.098 µM.

With `O=C1C[C@H](O)[C@@H](F)[C@@H](CSc2c(Cl)cc(Cl)cc2C(c2ccc(F)cc2)c2ccc(F)cc2)O1` [Example 12, 6-(2,4-Dichloro-6-(bisparafluorophenylmethyl)phenylthio)-3(R),5(S)-dihydroxy-4(R)-fluorohexanoic acid lactone], the IC50 in series [2] was found to be 5.5 µM; in series [1] it was 2 µM.

As for `CCCCc1cc(Cl)cc(Cl)c1/C=C/[C@H]1OC(=O)C[C@H](O)[C@H]1F` [Example 18, 7-(2-n-Butyl-4,6-dichlorophenyl)-3(S),5(R)-dihydroxy-4(R)-fluoro-E-hept-6-enoic acid lactone], the figures for the IC50 in series [2] and in series [1] were 0.32 µM and 0.032 µM, respectively.

For the compound `CC(C)c1nc(-c2ccccc2)cc(-c2ccc(F)cc2)c1/C=C/[C@H]1OC(=O)C[C@H](O)[C@H]1F` [Example 34, 3(S),5(R)-Dihydorxy-4(R)-fluoro-7-(2-isopropyl-4-parafluorophenyl-6-phenyl-3-pyridyl)hept-6E-enoic acid lactone], the “changes in the liver enzyme levels” value in series [3] is “without eliciting abnormal or pathological changes in the liver enzyme levels”. In addition, the “time within which the 40% lowering of total cholesterol was reached” value in series [4] (10 mg/kg/day by gavage) is reported as ≤ 3 days. Moreover, the “lowering of total cholesterol” value in series [4] (10 mg/kg/day by gavage in 1% carboxymethylcellulose, within 3 days, vs control group) was 40%. For the same compound, the “course of total cholesterol lowering during administration” value in series [4] (10 mg/kg/day by gavage, 10 days) is reported as “remained constant throughout the administration”. The “time for serum cholesterol levels to return to initial value after discontinuation” value in series [4] (10 mg/kg/day by gavage, discontinuation after 10 days) was ≤ 3 days. In series [2], this compound came in with an IC50 of 0.11 µM.

The compound `CC(C)c1nc(-c2ccccc2)nc(-c2ccc(F)cc2)c1/C=C/[C@H]1OC(=O)C[C@H](O)[C@H]1F` [Example 38, 3(S),5(R)-dihydroxy-4(R)-fluoro-7-[6-parafluorophenyl-4-isopropyl-2-phenyl-1,3-diazin-5-yl]hept-6E-enoic acid lactone] returned an IC50 in series [2] of 0.25 µM.

Turning to `CC[C@H](C)C(=O)O[C@H]1CCC=C2C=C[C@H](C)[C@H](CC[C@@H]3C[C@@H](O)CC(=O)O3)[C@H]21` [compactin], the “inhibition of HMG-CoA reductase (in words)” value in series [5] was “potent competitive inhibitor of HMG-CoA reductase”.
